Assay: clinical
Design: species or system human
Conditions: in vivo; for Tmax: human
Protocol: Adverse events were monitored throughout the study treatment from informed consent until 90 days after the last camrelizumab dose or 30 days after the last apatinib or fuzuloparib dose, whichever occurred later, and were graded according to the National Cancer Institute Common Terminology Criteria for Adverse Events version 5.0. Radiographic assessment was performed by computed tomography (CT) or magnetic resonance imaging (MRI) according to RECIST version 1.1 at baseline and every two cycles. Complete or partial responses were confirmed 4 weeks later. Blood samples for pharmacokinetic analysis of apatinib and fuzuloparib were collected in all patients enrolled in the dose-finding part and in six to eight patients enrolled in the dose-expansion part. To evaluate the pharmacokinetic data of single-agent apatinib, patients intended for pharmacokinetic analysis were given apatinib alone 3 days before combination treatment initiation. Blood samples were collected 30 min pre-dose, 30 min, 1 h, 2 h, 3 h, 4 h, 8 h, 12 h, and 24 h post-dose on day − 3 of cycle 0 and day 1 of cycle 1.
The primary endpoint was DLT in cycle 1.
Safety and antitumor activity analyses were performed in all patients who received at least one dose of the study treatment. Continuously distributed data were summarized as mean (standard deviation) or median (range). Categorical data were summarized by the number and percentage of patients in each category. Adverse events were summarized descriptively. Two-sided 95% confidence intervals (CIs) for ORR and DCR were calculated using the Clopper-Pearson method. The PFS, DOR, and 12-month OS rate and their corresponding 95% CIs were estimated using the Kaplan–Meier method. Analyses of safety and antitumor activity were performed with SAS version 9.4. Pharmacokinetic parameters were descriptively summarized with non-compartmental analysis using WinNonlin (version 8.2).

| SMILES | Tmax [h] | Apatinib exposure before and after co-administration with fuzuloparib |
| --- | --- | --- |
| N#CC1(c2ccc(NC(=O)c3cccnc3NCc3ccncc3)cc2)CCCC1 [Apatinib, apatinib] | 2 | comparable |
| O=C(c1cc(Cc2n[nH]c(=O)c3ccccc23)ccc1F)N1CCn2nc(C(F)(F)F)nc2C1 [Fuzuloparib, fuzuloparib] | 3 | – |
